Columns and labels:
[1] = biological target: T1, Coagulation factor XI (Homo sapiens, UniProt P03951); conditions: dose 50.0 nM, time 1.0 hrs
[2] = biological target: T1, Coagulation factor XI; assay: Inhibition of coagulation factor XIa (unknown origin) assessed as chromogenic substrate hydrolysis using CS-21(66) as substrate incubated for 1 hr by spectrophotometer based microplate reader method
[3] = biological target: Plasma kallikrein (Homo sapiens, UniProt P03952); assay: Inhibition of plasma kallikrein (unknown origin) assessed as chromogenic substrate hydrolysis using CS-31(02) as substrate incubated for 1 hr by spectrophotometer based microplate reader method
[4] = organism: Homo sapiens; assay: Selectivity index, ratio of IC50 for plasma kallikrein (unknown origin) to IC50 for coagulation factor XIa (unknown origin)
[5] = Toxicity in C57BL/6J mouse assessed as bleeding risk at 20 mg/kg, iv measured after 15 mins by tail transection assay; assay type: organism-based; conditions: in vivo, 0.25 h
[6] = Toxicity in C57BL/6J mouse assessed as bleeding risk at 35 mg/kg, iv measured after 15 mins by tail transection assay; assay type: organism-based; conditions: in vivo, 0.25 h
[7] = Toxicity in C57BL/6J mouse assessed as bleeding risk at 60 to 100 mg/kg, iv measured after 15 mins by tail transection assay; assay type: organism-based; conditions: in vivo, 0.25 h, dose 60-100 mg/kg

T1 sequence (P03951 19-387 limits assumed): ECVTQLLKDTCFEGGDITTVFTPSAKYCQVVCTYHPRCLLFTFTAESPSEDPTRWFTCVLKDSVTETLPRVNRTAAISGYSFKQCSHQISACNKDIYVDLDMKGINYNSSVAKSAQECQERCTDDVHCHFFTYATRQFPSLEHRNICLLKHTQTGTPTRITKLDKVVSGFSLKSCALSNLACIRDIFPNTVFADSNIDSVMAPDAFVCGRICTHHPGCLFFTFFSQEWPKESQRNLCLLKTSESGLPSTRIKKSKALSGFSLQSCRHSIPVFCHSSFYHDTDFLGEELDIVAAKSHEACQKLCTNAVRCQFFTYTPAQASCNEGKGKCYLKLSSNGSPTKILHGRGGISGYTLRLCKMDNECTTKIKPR
T1 sequence (P03951 388-625 limits assumed): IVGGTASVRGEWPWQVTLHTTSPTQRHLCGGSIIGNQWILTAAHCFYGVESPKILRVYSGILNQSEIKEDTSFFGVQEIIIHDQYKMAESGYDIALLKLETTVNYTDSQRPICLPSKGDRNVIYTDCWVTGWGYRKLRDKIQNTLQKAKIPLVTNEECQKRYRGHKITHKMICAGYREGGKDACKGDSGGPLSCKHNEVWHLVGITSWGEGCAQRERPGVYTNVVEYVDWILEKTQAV
Sequence of Plasma kallikrein (P03952 20-390 limits assumed): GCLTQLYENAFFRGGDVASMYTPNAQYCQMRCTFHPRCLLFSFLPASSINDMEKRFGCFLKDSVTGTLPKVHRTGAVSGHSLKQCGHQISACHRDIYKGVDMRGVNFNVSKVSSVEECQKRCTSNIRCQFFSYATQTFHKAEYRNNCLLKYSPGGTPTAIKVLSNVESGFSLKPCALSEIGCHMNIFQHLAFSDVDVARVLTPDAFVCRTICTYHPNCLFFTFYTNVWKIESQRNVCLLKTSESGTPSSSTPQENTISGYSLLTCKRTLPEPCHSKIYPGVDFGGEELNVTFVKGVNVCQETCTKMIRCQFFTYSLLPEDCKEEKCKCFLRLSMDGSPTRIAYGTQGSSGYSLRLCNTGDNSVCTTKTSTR
Sequence of Plasma kallikrein (P03952 391-638 limits assumed): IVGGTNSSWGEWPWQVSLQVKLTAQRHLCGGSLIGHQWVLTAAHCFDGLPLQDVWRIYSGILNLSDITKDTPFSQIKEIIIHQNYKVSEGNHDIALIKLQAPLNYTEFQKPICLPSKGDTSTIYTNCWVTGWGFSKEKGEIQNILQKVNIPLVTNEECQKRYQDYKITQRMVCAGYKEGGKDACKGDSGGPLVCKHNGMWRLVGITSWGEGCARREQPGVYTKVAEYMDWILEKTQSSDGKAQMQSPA

inhibition [1] [%] | IC50 [2] [nM] | IC50 [3] [nM] | SMILES | further results
3.8 |  |  | O=C(/C=C/c1cc(Cl)ccc1-n1cnnn1)N[C@@H](CCC(=O)N1CCN(Cc2cccc(Cl)c2)CC1)C(=O)Nc1ccc(C(=O)O)cc1 | 
3.6 |  |  | CC1CCN(C(=O)C[C@H](NC(=O)/C=C/c2cc(Cl)ccc2-n2cnnn2)C(=O)Nc2ccc(C(=O)O)cc2)CC1 | 
< 5 |  |  | O=C(/C=C/c1cc(Cl)ccc1-n1cnnn1)NCC(=O)Nc1ccc(C(=O)O)cc1 | 
12.3 |  |  | O=C(/C=C/c1cc(Cl)ccc1-n1cnnn1)N[C@@H](CC(=O)N1CCC(O)CC1)C(=O)Nc1ccc(C(=O)O)cc1 | 
16.1 |  |  | O=C(/C=C/c1cc(Cl)ccc1-n1cnnn1)N[C@@H](CCC(=O)N1CCCCC1)C(=O)Nc1ccc(C(=O)O)cc1 | 
45.5 | 25.5 | 2700 | CCN1CCN(C(=O)C[C@H](NC(=O)/C=C/c2cc(Cl)ccc2-n2cnnn2)C(=O)Nc2ccc(C(=O)O)cc2)CC1 | Ratio IC50 [4]: 106
2.1 |  |  | O=C(O)C[C@H](NC(=O)/C=C/c1cc(Cl)ccc1-n1cnnn1)C(=O)Nc1ccc(C(=O)O)cc1 | 
6.6 |  |  | O=C(O)CC[C@H](NC(=O)/C=C/c1cc(Cl)ccc1-n1cnnn1)C(=O)Nc1ccc(C(=O)O)cc1 | 
7.2 |  |  | O=C(CN(Cc1ccc(F)cc1)C(=O)/C=C/c1cc(Cl)ccc1-n1cnnn1)Nc1ccc(C(=O)O)cc1 | 
43.5 | 26.5 | 1200 | Cc1ccc(CN2CCN(C(=O)C[C@H](NC(=O)/C=C/c3cc(Cl)ccc3-n3cnnn3)C(=O)Nc3ccc(C(=O)O)cc3)CC2)cc1 | Ratio IC50 [4]: 45
20.5 | 737 |  | CN1CCN(C(=O)CC[C@H](NC(=O)/C=C/c2cc(Cl)ccc2-n2cnnn2)C(=O)Nc2ccc(C(=O)O)cc2)CC1 | 
15.3 |  |  | O=C(CN(Cc1ccccc1)C(=O)/C=C/c1cc(Cl)ccc1-n1cnnn1)Nc1ccc(C(=O)O)cc1 | 
3.6 |  |  | CCc1ccc(CN(CC(=O)Nc2ccc(C(=O)O)cc2)C(=O)/C=C/c2cc(Cl)ccc2-n2cnnn2)cc1 | 
< 5 |  |  | Cc1ccc(CN(CC(=O)Nc2ccc(C(=O)O)cc2)C(=O)/C=C/c2cc(Cl)ccc2-n2cnnn2)cc1 | 
21.9 | 132 | 6700 | O=C(/C=C/c1cc(Cl)ccc1-n1cnnn1)N[C@@H](CCC(=O)N1CCSCC1)C(=O)Nc1ccc(C(=O)O)cc1 | Ratio IC50 [4]: 50
19.4 |  |  | Cc1ccc(CN2CCN(C(=O)CC[C@H](NC(=O)/C=C/c3cc(Cl)ccc3-n3cnnn3)C(=O)Nc3ccc(C(=O)O)cc3)CC2)cc1 | 
< 5 |  |  | COc1ccc(CN(CC(=O)Nc2ccc(C(=O)O)cc2)C(=O)/C=C/c2cccc(Cl)c2)cc1 | 
15.9 |  |  | O=C(/C=C/c1cc(Cl)ccc1-n1cnnn1)N[C@@H](CC(=O)N1CCCCC1)C(=O)Nc1ccc(C(=O)O)cc1 | 
8.9 |  |  | COc1ccc(CN(CC(=O)Nc2ccc(C(=O)O)cc2)C(=O)/C=C/c2cc(Cl)ccc2-n2cnnn2)cc1 | 
53.3 | 30.2 | 1060 | O=C(/C=C/c1cc(Cl)ccc1-n1cnnn1)N[C@@H](CC(=O)N1CCN(Cc2ccccc2)CC1)C(=O)Nc1ccc(C(=O)O)cc1 | Ratio IC50 [4]: 35
7.9 |  |  | O=C(CN(Cc1ccccc1)C(=O)/C=C/c1cccc(Cl)c1)Nc1ccc(C(=O)O)cc1 | 
17.2 |  |  | CN1CCN(C(=O)C[C@H](NC(=O)/C=C/c2cc(Cl)ccc2-n2cnnn2)C(=O)Nc2ccc(C(=O)O)cc2)CC1 | 

More lines, now with the values behind:

SMILES | inhibition [1] [%] | IC50 [2] [nM] | IC50 [3] [nM] | further results
O=C(/C=C/c1cc(Cl)ccc1-n1cnnn1)N[C@@H](CCC(=O)N1CCS(=O)(=O)CC1)C(=O)Nc1ccc(C(=O)O)cc1 | 2.6 |  |  | 
CCCCN1CCN(C(=O)C[C@H](NC(=O)/C=C/c2cc(Cl)ccc2-n2cnnn2)C(=O)Nc2ccc(C(=O)O)cc2)CC1 | 51.5 | 7.7 | 510 | 
CN(C)C1CCN(C(=O)CC[C@H](NC(=O)/C=C/c2cc(Cl)ccc2-n2cnnn2)C(=O)Nc2ccc(C(=O)O)cc2)CC1 | 7.5 |  |  | 
O=C(/C=C/c1cc(Cl)ccc1-n1cnnn1)N[C@@H](CC(=O)N1CCN(CC2CC2)CC1)C(=O)Nc1ccc(C(=O)O)cc1 | 65.7 | 7.8 | 600 | Ratio IC50 [4]: 77
CC(=O)N1CCN(C(=O)C[C@H](NC(=O)/C=C/c2cc(Cl)ccc2-n2cnnn2)C(=O)Nc2ccc(C(=O)O)cc2)CC1 | 23.2 | 76.5 | 17300 | Ratio IC50 [4]: 226
CC1CCN(C(=O)CC[C@H](NC(=O)/C=C/c2cc(Cl)ccc2-n2cnnn2)C(=O)Nc2ccc(C(=O)O)cc2)CC1 | 3.1 |  |  | 
O=C(/C=C/c1cc(Cl)ccc1-n1cnnn1)N[C@@H](CC(=O)N1CCN(CCO)CC1)C(=O)Nc1ccc(C(=O)O)cc1 | 60.2 | 11.5 | 3400 | Ratio IC50 [4]: 295
CC(C)N1CCN(C(=O)CC[C@H](NC(=O)/C=C/c2cc(Cl)ccc2-n2cnnn2)C(=O)Nc2ccc(C(=O)O)cc2)CC1 | 20.9 | 73.5 |  | 
O=C(/C=C/c1cc(Cl)ccc1-n1cnnn1)N[C@@H](CCC(=O)N1CCC(O)CC1)C(=O)Nc1ccc(C(=O)O)cc1 | 20.9 |  |  | 
CC(C)N1CCN(C(=O)C[C@H](NC(=O)/C=C/c2cc(Cl)ccc2-n2cnnn2)C(=O)Nc2ccc(C(=O)O)cc2)CC1 | 44 | 31.2 | 490 | Ratio IC50 [4]: 16
CN1CCCN(C(=O)CC[C@H](NC(=O)/C=C/c2cc(Cl)ccc2-n2cnnn2)C(=O)Nc2ccc(C(=O)O)cc2)CC1 | 30.1 |  |  | 
O=C(/C=C/c1cc(Cl)ccc1-n1cnnn1)N[C@@H](Cc1ccccc1)C(=O)Nc1ccc(C(=O)O)cc1 |  |  |  | Activity [5]: Non-Toxic; Activity [6]: Non-Toxic; Activity [7]: Toxic
O=C(/C=C/c1cc(Cl)ccc1-n1cnnn1)N[C@@H](CCC(=O)N1CCN(CC2CC2)CC1)C(=O)Nc1ccc(C(=O)O)cc1 | 41.7 |  | 3100 | Ratio IC50 [4]: 42
O=C(/C=C/c1cc(Cl)ccc1-n1cnnn1)N[C@@H](CC(=O)N1CCCN(CC2CC2)CC1)C(=O)Nc1ccc(C(=O)O)cc1 | 34.7 | 67.1 | 1400 | Ratio IC50 [4]: 21
CCN1CCN(C(=O)CC[C@H](NC(=O)/C=C/c2cc(Cl)ccc2-n2cnnn2)C(=O)Nc2ccc(C(=O)O)cc2)CC1 | 17.2 | 89.4 |  | 
CCCCN1CCN(C(=O)CC[C@H](NC(=O)/C=C/c2cc(Cl)ccc2-n2cnnn2)C(=O)Nc2ccc(C(=O)O)cc2)CC1 | 39.3 |  | 2700 | Ratio IC50 [4]: 30

From ChEMBL document CHEMBL5046289, “Targeting the S2 Subsite Enables the Structure-Based Discovery of Novel Highly Selective Factor XIa Inhibitors” (J Med Chem, 2022)
